The text below walks through data of patent US10538498B2, “1,3,4-oxadiazole sulfonamide derivative compounds as histone deacetylase 6 inhibitor, and the pharmaceutical composition comprising the same” (Chong Kun Dang Pharmaceutical Corp., priority 2015, dated 2020).

The experiment addresses T1, human recombinant HDAC6 (Homo sapiens, UniProt Q9UBN7).
T1 construct: purchased Calbiochem 382180
T1 sequence (Q9UBN7 1-1215): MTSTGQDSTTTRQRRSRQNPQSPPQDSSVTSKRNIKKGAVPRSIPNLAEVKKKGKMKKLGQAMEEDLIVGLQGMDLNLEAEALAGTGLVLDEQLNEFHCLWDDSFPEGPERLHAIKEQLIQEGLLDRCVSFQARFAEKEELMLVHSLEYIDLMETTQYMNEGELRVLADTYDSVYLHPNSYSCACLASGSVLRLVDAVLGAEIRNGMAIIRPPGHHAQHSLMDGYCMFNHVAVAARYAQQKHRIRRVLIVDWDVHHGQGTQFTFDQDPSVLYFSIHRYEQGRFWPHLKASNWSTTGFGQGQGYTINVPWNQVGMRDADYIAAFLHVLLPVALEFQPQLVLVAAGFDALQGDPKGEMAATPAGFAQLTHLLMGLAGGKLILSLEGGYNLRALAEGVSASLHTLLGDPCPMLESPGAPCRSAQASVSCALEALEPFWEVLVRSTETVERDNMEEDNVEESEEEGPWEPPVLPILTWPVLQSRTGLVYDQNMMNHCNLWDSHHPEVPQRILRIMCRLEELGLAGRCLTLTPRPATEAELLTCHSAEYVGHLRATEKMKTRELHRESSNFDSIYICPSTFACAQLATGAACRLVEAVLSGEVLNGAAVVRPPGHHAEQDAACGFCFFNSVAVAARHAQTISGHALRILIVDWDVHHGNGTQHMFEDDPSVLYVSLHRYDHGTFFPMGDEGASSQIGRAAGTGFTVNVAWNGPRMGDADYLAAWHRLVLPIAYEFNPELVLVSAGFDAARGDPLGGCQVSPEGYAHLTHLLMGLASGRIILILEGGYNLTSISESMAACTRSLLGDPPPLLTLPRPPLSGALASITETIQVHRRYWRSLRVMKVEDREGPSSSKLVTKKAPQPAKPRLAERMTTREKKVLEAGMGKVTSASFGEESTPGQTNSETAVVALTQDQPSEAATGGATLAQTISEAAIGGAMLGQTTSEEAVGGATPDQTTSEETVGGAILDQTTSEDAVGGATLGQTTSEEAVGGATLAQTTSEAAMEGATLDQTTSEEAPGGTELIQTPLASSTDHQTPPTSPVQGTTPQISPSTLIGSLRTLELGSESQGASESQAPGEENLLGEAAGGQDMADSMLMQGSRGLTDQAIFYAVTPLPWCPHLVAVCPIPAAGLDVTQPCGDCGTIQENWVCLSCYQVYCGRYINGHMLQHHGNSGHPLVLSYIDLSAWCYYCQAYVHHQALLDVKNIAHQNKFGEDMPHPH
As to the kind of experiment: HDAC6 enzyme activity inhibition assay (HDAC Fluorimetric Drug Discovery Kit). It is filed as biochemical. To be noted: for HDAC6 selectivity (fold): HDAC1 vs HDAC6; for IC50: same protocol as the HDAC1 enzyme activity test. An outline of the steps: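 5-fold compound dilutions + 0.3 μg enzyme + 10 μM Fluor de Lys-SIRT1 substrate, 60 min, 30° C; Developer II 30 min; fluorescence Ex 360/Em 460; IC50 by curve fit.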

What is called IC50 is the concentration at which inhibition is half-maximal. For the molecule `CC(=O)c1cccc(N(Cc2ccc(-c3nnc(C(F)F)o3)cc2F)S(C)(=O)=O)c1` [Compound 11254, N-(3-acetylphenyl)-N-(4-(5-(difluoromethyl)-1,3,4-oxadiazol-2-yl)-2-fluorobenzyl)methanesulfonamide], the “HDAC6 selectivity (fold)” value is 3448 fold and the half-inhibitory concentration (IC50) was 29 nM.
For the molecule `CS(=O)(=O)N(Cc1ccc(-c2nnc(C(F)F)o2)cc1F)c1cncc(F)c1` [Compound 11284, N-(4-(5-(difluoromethyl)-1,3,4-oxadiazol-2-yl)-2-fluorobenzyl)-N-(5-fluoropyridin-3-yl)methanesulfonamide], the “HDAC6 selectivity (fold)” value was 3704 fold and the half-inhibitory concentration (IC50) is 27 nM.
Consider `O=S(=O)(C1CCOCC1)N(Cc1ccc(-c2nnc(C(F)F)o2)cn1)c1ccccc1` [Compound 11390, N-((5-(5-(difluoromethyl)-1,3,4-oxadiazol-2-yl)pyridin-2-yl)methyl)-N-phenyltetrahydro-2H-pyran-4-sulfonamide], for which the “HDAC6 selectivity (fold)” value came out at 7692 fold and the IC50 came out at 13 nM.
Take `CCS(=O)(=O)N(Cc1ccc(-c2nnc(C(F)F)o2)cn1)c1ccc(F)c(Cl)c1` [Compound 11411, N-(3-chloro-4-fluorophenyl)-N-((5-(5-(difluoromethyl)-1,3,4-oxadiazol-2-yl)pyridin-2-yl)methyl)ethanesulfonamide]: the “HDAC6 selectivity (fold)” value turned out to be 14286 fold and the half-maximal inhibitory concentration (IC50) stood at 7 nM.
`O=S(=O)(C1CCOC1)N(Cc1ccc(-c2nnc(C(F)F)o2)cn1)c1ccccc1` (centres unmarked) [Compound 11428, N-((5-(5-(difluoromethyl)-1,3,4-oxadiazol-2-yl)pyridin-2-yl)methyl)-N-phenyltetrahydrofuran-3-sulfonamide]: the “HDAC6 selectivity (fold)” value was 6667 fold and the 50% inhibitory concentration (IC50) was determined as 15 nM.
With `COC(=O)C1CN(CCS(=O)(=O)N(Cc2ccc(-c3nnc(C(F)F)o3)cc2)c2ccccc2)C1` [Compound 11820, methyl 1-(2-(N-(4-(5-(difluoromethyl)-1,3,4-oxadiazol-2-yl)benzyl)-N-phenylsulfamoyl)ethyl)azetidine-3-carboxylate], the “HDAC6 selectivity (fold)” value turned out to be 1652 fold and the half-inhibitory concentration (IC50) was found to be 60.5 nM.
As for `CS(=O)(=O)N(Cc1ccc(-c2nnc(C(F)F)o2)cn1)c1ccc(F)c(Cl)c1` [Compound 11433, N-(3-chloro-4-fluorophenyl)-N-((5-(5-(difluoromethyl)-1,3,4-oxadiazol-2-yl)pyridin-2-yl)methyl)methanesulfonamide], the “HDAC6 selectivity (fold)” value was 8333 fold and the 50% inhibitory concentration (IC50) worked out at 12 nM.
On to `Cc1cccc(N(Cc2ccc(-c3nnc(C(F)F)o3)cc2)S(=O)(=O)C2CCN([C@H]3CC[C@H](C(F)(F)F)CC3)CC2)c1` [Compound 11697, N-(4-(5-(difluoromethyl)-1,3,4-oxadiazol-2-yl)benzyl)-N-(m-tolyl)-1-((1r,4r)-4-(trifluoromethyl)cyclohexyl)piperidine-4-sulfonamide], for which the “HDAC6 selectivity (fold)” value was found to be 101 fold and the IC50 was 988 nM.
As for `COc1cccc(N(Cc2ccc(-c3nnc(C(F)F)o3)cc2F)S(C)(=O)=O)c1` [Compound 11180, N-(4-(5-(difluoromethyl)-1,3,4-oxadiazol-2-yl)-2-fluorobenzyl)-N-(3-methoxyphenyl)methanesulfonamide], the “HDAC6 selectivity (fold)” value worked out at 1613 fold and the 50% inhibitory concentration (IC50) was determined as 62 nM.
Regarding `O=C(OCC1CCN(CCS(=O)(=O)N(Cc2ccc(-c3nnc(C(F)F)o3)cc2)c2ccccc2)CC1)C(F)F` [Compound 11676, (1-(2-(N-(4-(5-(difluoromethyl)-1,3,4-oxadiazol-2-yl)benzyl)-N-Phenylsulfamoyl)ethyl)piperidin-4-yl)methyl 2,2-difluoroacetate], the “HDAC6 selectivity (fold)” value came out at 1408 fold and the half-maximal inhibitory concentration (IC50) stood at 71 nM.
In the case of `CN1CCN(CCS(=O)(=O)N(Cc2ccc(-c3nnc(C(F)F)o3)cc2)c2ccccc2)CC1` [Compound 11630, N-(4-(5-(difluoromethyl)-1,3,4-oxadiazol-2-yl)benzyl)-2-(4-methylpiperazin-1-yl)-N-phenylethane-1-sulfonamide], the “HDAC6 selectivity (fold)” value was 3225 fold and the IC50 was 31 nM.
With `CS(=O)(=O)N(Cc1ccc(-c2nnc(C(F)(F)F)o2)cc1F)c1ccccc1Cl` [Compound 11279, N-(2-chlorophenyl)-N-(2-fluoro-4-(5-(trifluoromethyl)-1,3,4-oxadiazol-2-yl)benzyl)methanesulfonamide], the “HDAC6 selectivity (fold)” value is recorded as 901 fold and the IC50 is 111 nM.
For `Cc1cccc(N(Cc2ccc(-c3nnc(C(F)F)o3)cn2)S(=O)(=O)C2CCN(C3COC3)CC2)c1` [Compound 11684, N-((5-(5-(difluoromethyl)-1,3,4-oxadiazol-2-yl)pyridin-2-yl)methyl)-1-(oxetan-3-yl)-N-(m-tolyl)piperidine-4-sulfonamide], the “HDAC6 selectivity (fold)” value was 6250 fold and the 50% inhibitory concentration (IC50) was found to be 16 nM.
Regarding `CC(C)(C)OC(=O)N(C(=O)C(F)F)C1CCN(CCS(=O)(=O)N(Cc2ccc(-c3nnc(C(F)F)o3)cc2)c2ccccc2)CC1` [Compound 11677, tert-butyl 2,2-difluoroacetyl(1-(2-(N-(4-(5-(difluoromethyl)-1,3,4-oxadiazol-2-yl)benzyl)-N-phenylsulfamoyl)ethyl)piperidin-4-yl)carbamate], the “HDAC6 selectivity (fold)” value worked out at 1754 fold and the half-inhibitory concentration (IC50) turned out to be 57 nM.
Take `CS(=O)(=O)N(Cc1ccc(-c2nnc(C(F)F)o2)cc1F)c1ccccc1C(F)(F)F` [Compound 11219, N-(4-(5-(difluoromethyl)-1,3,4-oxadiazol-2-yl)-2-fluorobenzyl)-N-(2-(trifluoromethyl)phenyl)methanesulfonamide]: the “HDAC6 selectivity (fold)” value is given as 1064 fold and the IC50 stood at 94 nM.
For the molecule `CS(=O)(=O)N(Cc1ccc(-c2nnc(C(F)F)o2)cc1F)c1ccc(Br)cc1` [Compound 11278, N-(4-bromophenyl)-N-(4-(5-(difluoromethyl)-1,3,4-oxadiazol-2-yl)-2-fluorobenzyl)methanesulfonamide], the “HDAC6 selectivity (fold)” value was determined as 1923 fold and the IC50 is 52 nM.
On to `CS(=O)(=O)N(Cc1ccc(-c2nnc(C(F)F)o2)cc1F)c1ccccc1F` [Compound 11274], for which the “HDAC6 selectivity (fold)” value is on record as 2439 fold and the half-inhibitory concentration (IC50) came out at 41 nM.
With `CCN(CCS(=O)(=O)N(Cc1ccc(-c2nnc(C(F)F)o2)cc1)c1ccccc1)Cc1ccccc1` [Compound 11765, 2-(benzyl(ethyl)amino)-N-(4-(5-(difluoromethyl)-1,3,4-oxadiazol-2-yl)benzyl)-N-phenylethane-1-sulfonamide], the “HDAC6 selectivity (fold)” value is on record as 526 fold and the concentration for half-maximal inhibition (IC50) is 190 nM.
On to `O=S(=O)(C1CCCCC1)N(Cc1ccc(-c2nnc(C(F)F)o2)cc1F)c1ccccc1` [Compound 11229, N-(4-(5-(difluoromethyl)-1,3,4-oxadiazol-2-yl)-2-fluorobenzyl)-N-phenylcyclohexanesulfonamide], for which the “HDAC6 selectivity (fold)” value was 1176 fold and the IC50 amounted to 85 nM.
As for `O=S(=O)(CCN1Cc2cccc3cccc(c23)C1)N(Cc1ccc(-c2nnc(C(F)F)o2)cc1)c1ccccc1` [Compound 11843, 2-(1H-benzo[de]isoquinolin-2(3H)-yl)-N-(4-(5-(difluoromethyl)-1,3,4-oxadiazol-2-yl)benzyl)-N-phenylethane-1-sulfonamide], the “HDAC6 selectivity (fold)” value came to 101 fold and the concentration for half-maximal inhibition (IC50) was 994 nM.
Turning to `COCCN1CCN(CCS(=O)(=O)N(Cc2ccc(-c3nnc(C(F)F)o3)cc2)c2ccccc2)CC1` [Compound 11758, N-(4-(5-(difluoromethyl)-1,3,4-oxadiazol-2-yl)benzyl)-2-(4-(2-methoxyethyl)piperazin-1-yl)-N-phenylethane-1-sulfonamide], the “HDAC6 selectivity (fold)” value is 1039 fold and the IC50 is 96.2 nM.
For the molecule `O=S(=O)(CCN(Cc1ccccc1)Cc1ccccc1)N(Cc1ccc(-c2nnc(C(F)F)o2)cc1)c1ccccc1` [Compound 11796, 2-(dibenzylamino)-N-(4-(5-(difluoromethyl)-1,3,4-oxadiazol-2-yl)benzyl)-N-phenylethane-1-sulfonamide], the “HDAC6 selectivity (fold)” value was 56 fold and the IC50 is 1780 nM.
